Source: patent US20260137697A1, “THIAZOLO[5,4-D]PYRIMIDINE COMPOUNDS, COMPOSITIONS COMPRISING THEM AND USES THEREOF” (University de Montreal, priority 2022, published 2026)

Test system: pERK, RAS-mutant cancer cell lines
Assay: Paradoxical pERK induction across the panel of RAS-mutant cancer cell lines
Format: cell-based, human
Settings: in 10 of the 13 RAS-mutant cell lines tested; mild to strong induction of the pathway
Procedure: All cancer cell lines (A375, A101D, A2058, RKO, HT29 SK-MEL 30, IPC298, HepG2, HCT-116, Lovo, SW620, SW480, NCI-H358, NCI-H2122, Calu-6, NCIH2087, NCIH1755, NCIH1666 and Mewo) were obtained from ATCC and cultured in RPM1-1640 medium (Gibco) supplemented with 5% heat inactivated fetal bovine serum (FBS, Wisent) at 37° C. under 5% CO2. Cells were maintained in T175 flasks (Greiner). They were passaged by removing the culture medium, washing once in 10 mL of room temperature Phosphate Buffered Saline (PBS; Wisent) and incubating at 37° C. with 2 mL of 0.05% Trypsin (Thermo-Fisher). […]
After treatment, media was removed, and cells were lysed in 50 μL of 1× AlphaScreen Ultra Lysis Buffer (Perkin Elmer). […] After completion of the reactions, the signals were recorded on an EnVision plate reader (Perkin Elmer) using built in AlphaLISA® settings.
The effect of each compound dilution on the pERK signal was expressed in % inhibition and calculated as follows. […]
The ability of each compound to inhibit pERK signal was expressed as an IC50 value obtained by plotting the inhibition values for each data point of a dilution series and fitting the obtained curves using a log(agonist) versus response—variable slope (four parameters) function using GraphPadPrism (V7.0) or Dotmatics Screening Ultra platform. […]

YMIN of pERK IC50 curves: < −30%
Structure (SMILES): Cc1ccc2c(Nc3cccc(Cl)c3F)nccc2c1NC(=O)c1csc2c(N)ncnc12 [Belvarafenib, reference compound]
